Source: the supplement of paper PMC8671470
± gives the standard deviation of the averaged measurements.

System: HL-60
Test: cell viability (% survival relative to DMSO control); higher = less cytotoxic
Settings: 72 h
In short: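 Four-parameter log-logistic fits in drc and PharmacoGx supplied area under the curve where it is given. Underlying viability came from CellTiter-Glo, normalised to DMSO and proteasome-inhibitor wells, with the proteasome inhibitor at 10 μM. HL-60 cells in RPMI 1640 plus 10% FBS had been rescreened against the full library at five tenfold concentrations of 1–10,000 nM, in duplicate on 384-well plates, with DMSO or 100 nM of one of three metabolic inhibitors, for 72 h at 37 °C, 5% CO2.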

[1] = 0.001 µM, co-treatment: AZD3965 100 nM
[2] = 0.001 µM, co-treatment: DMSO vehicle
[3] = 0.001 µM, co-treatment: GSK2194069 100 nM
[4] = 0.001 µM, co-treatment: pictilisib 100 nM
[5] = 0.01 µM, co-treatment: AZD3965 100 nM
[6] = 0.01 µM, co-treatment: DMSO vehicle
[7] = 0.01 µM, co-treatment: GSK2194069 100 nM
[8] = 0.01 µM, co-treatment: pictilisib 100 nM
[9] = 0.1 µM, co-treatment: AZD3965 100 nM
[10] = 0.1 µM, co-treatment: DMSO vehicle
[11] = 0.1 µM, co-treatment: GSK2194069 100 nM
[12] = 0.1 µM, co-treatment: pictilisib 100 nM
[13] = 1 µM, co-treatment: AZD3965 100 nM
[14] = 1 µM, co-treatment: DMSO vehicle
[15] = 1 µM, co-treatment: GSK2194069 100 nM
[16] = 1 µM, co-treatment: pictilisib 100 nM
[17] = 10 µM, co-treatment: AZD3965 100 nM
[18] = 10 µM, co-treatment: DMSO vehicle
[19] = 10 µM, co-treatment: GSK2194069 100 nM
[20] = 10 µM, co-treatment: pictilisib 100 nM

SMILES | cell viability [1] | cell viability [2] | cell viability [3] | cell viability [4] | cell viability [5] | cell viability [6] | cell viability [7] | cell viability [8] | cell viability [9] | cell viability [10] | cell viability [11] | cell viability [12] | cell viability [13] | cell viability [14] | cell viability [15] | cell viability [16] | cell viability [17] | cell viability [18] | cell viability [19] | cell viability [20]
CCOC(=O)[C@H]1O[C@@H]1C(=O)N[C@@H](CC(C)C)C(=O)NCCC(C)C [Aloxistatin] | 100 ± 1.1% | 102 ± 6% | 102 ± 11% | 106 ± 11% | 101 ± 4.6% | 104 ± 7.9% | 106 ± 15% | 115 ± 19% | 98 ± 5.8% | 100 ± 1.2% | 95.8 ± 2.5% | 100 ± 6.3% | 97.6 ± 3.7% | 100 ± 1.4% | 92.5 ± 11% | 106 ± 5.1% | 103 ± 6.2% | 99.7 ± 2.7% | 115 ± 23% | 99.7 ± 3.2%
N[C@](CCCCB(O)O)(CCN1CCCCC1)C(=O)O [Arginase inhibitor 1] | 94.6 ± 14% | 102.5 ± 0.45% | 91.7 ± 12% | 87.5 ± 14% | 98.6 ± 5.9% | 97.3 ± 2% | 100 ± 5.7% | 94.4 ± 4.9% | 99.9 ± 2.7% | 102 ± 3.7% | 109.7 ± 0.86% | 98.3 ± 3% | 99.151 ± 0.014% | 98.12 ± 0.95% | 90.6 ± 12% | 90.8 ± 6.9% | 102.3 ± 0.42% | 103 ± 7.5% | 101 ± 6.6% | 99.5 ± 2.6%
Cc1noc2c1-c1ccccc1C(c1ccc(Cl)cc1)=N[C@H]2CC(N)=O [CPI-0610] | 101 ± 2.2% | 96.3 ± 1.7% | 101 ± 1.7% | 104 ± 2.6% | 101 ± 1.5% | 95.3 ± 1.7% | 100.1 ± 0.39% | 94.4 ± 1.4% | 92 ± 14% | 98.8 ± 2.3% | 97.5 ± 6.9% | 75.5 ± 14% | 62.6 ± 7.4% | 74.8 ± 9.4% | 71.4 ± 2.1% | 45.8 ± 1.4% | 16.8 ± 1.1% | 23.7 ± 2.8% | 25.3 ± 6.1% | 8.68 ± 2.2%
Nc1ccn([C@@H]2O[C@H](CO)[C@@H](O)[C@@H]2O)c(=O)n1 [Cytarabine] | 82 ± 32% | 80.7 ± 36% | 99.2 ± 2.5% | 103 ± 14% | 96.1 ± 7.4% | 102 ± 1.5% | 97.4 ± 1.3% | 101 ± 5.1% | 99.4 ± 4.1% | 101 ± 2.5% | 95.8 ± 1.5% | 84.52 ± 0.57% | 46.7 ± 9.3% | 59.5 ± 7% | 60.6 ± 3.9% | 30.9 ± 0.58% | 6.3 ± 2.2% | 6.92 ± 1.2% | 7.86 ± 0.42% | 6.83 ± 3%
CCOc1ccc(Cc2cc([C@@H]3O[C@H](CO)[C@@H](O)[C@H](O)[C@H]3O)ccc2Cl)cc1 [Dapagliflozin] | 100.2 ± 0.34% | 105 ± 2.9% | 100.95 ± 0.06% | 99.1 ± 5.3% | 97.7 ± 4.2% | 101.3 ± 0.77% | 102 ± 1.1% | 103 ± 1.6% | 99.5 ± 0.33% | 100 ± 3.5% | 100 ± 4.8% | 101.6 ± 0.16% | 103.3 ± 0.55% | 99.6 ± 1.8% | 96 ± 1.6% | 104 ± 5.3% | 104 ± 2% | 103 ± 3.6% | 102 ± 4.6% | 100 ± 6.2%
CCN(CC)CCN(Cc1ccc(-c2ccc(C(F)(F)F)cc2)cc1)C(=O)Cn1c(SCc2ccc(F)cc2)nc(=O)c2c1CCC2 [Darapladib] | 96.2 ± 14% | 103.1 ± 0.25% | 98.7 ± 14% | 85.9 ± 27% | 100 ± 3.4% | 99.55 ± 0.55% | 97.8 ± 1.3% | 97.2 ± 7% | 104 ± 1.6% | 101 ± 6.2% | 99.8 ± 1.8% | 102 ± 4.5% | 93.7 ± 2.3% | 96.27 ± 0.22% | 84.4 ± 10% | 97.3 ± 7.4% | -1.351 ± 0.0054% | -2.41 ± 0.42% | -2.4 ± 0.029% | -2.26 ± 0.088%
O=C(O)C(Cl)Cl [Dichloroacetate] | 96.1 ± 3.5% | 96.5 ± 1.4% | 98.6 ± 9.5% | 89.5 ± 5.3% | 105 ± 4.1% | 104 ± 6.4% | 104 ± 2% | 100 ± 12% | 104 ± 4% | 102 ± 2.5% | 96.3 ± 9.7% | 91 ± 4% | 101 ± 2.4% | 101 ± 2.9% | 98.3 ± 5.9% | 99.9 ± 2.8% | 101 ± 1.1% | 100.4 ± 0.25% | 102.8 ± 0.97% | 97 ± 5.1%
O=C1Oc2ccccc2C(=O)C1CC1C(=O)Oc2ccccc2C1=O (stereo not given) [Dicumarol] | 101 ± 6% | 104 ± 3.1% | 122 ± 4.6% | 103 ± 4.7% | 73.3 ± 30% | 102 ± 6.2% | 62.5 ± 23% | 91 ± 15% | 100 ± 3.5% | 100 ± 1.2% | 95.5 ± 1.2% | 103 ± 9% | 101 ± 5.3% | 100 ± 8.3% | 98.8 ± 5.7% | 102 ± 11% | 97.7 ± 4% | 99.1 ± 4.8% | 85 ± 7% | 92.1 ± 5%
CC12CCC(O)CC1CCC1C2CCC2(C)C(C3=CC(=O)OC3)CCC12O (stereo not given) [Digitoxigenin] | 104 ± 7.6% | 99.5 ± 2.3% | 98.16 ± 0.98% | 104 ± 4.3% | 100 ± 5.7% | 105 ± 4.2% | 99.7 ± 2% | 105 ± 4.2% | 102 ± 1.2% | 100 ± 3% | 95 ± 3% | 101.7 ± 0.93% | -0.584 ± 0.77% | -1.01 ± 1.5% | -0.749 ± 1.5% | -1.18 ± 0.99% | -0.476 ± 0.086% | -0.944 ± 0.072% | -1.7 ± 0.21% | -1.09 ± 0.14%
C[C@H]1O[C@@H](O[C@H]2[C@@H](O)C[C@H](O[C@H]3[C@@H](O)C[C@H](O[C@H]4CC[C@@]5(C)[C@H](CC[C@@H]6[C@@H]5C[C@@H](O)[C@]5(C)[C@@H](C7=CC(=O)OC7)CC[C@]65O)C4)O[C@@H]3C)O[C@@H]2C)C[C@H](O)[C@@H]1O [Digoxin] | 75.4 ± 20% | 96.3 ± 4.9% | 84.4 ± 2.7% | 90.5 ± 2.1% | 100.2 ± 0.99% | 102.5 ± 0.88% | 79.1 ± 12% | 89.6 ± 7.5% | 59.9 ± 4.1% | 59.4 ± 21% | 67.8 ± 22% | 51.4 ± 16% | -2.24 ± 0.7% | 0.303 ± 2.7% | -2.57 ± 0.89% | -2.59 ± 1.1% | -0.643 ± 0.45% | -1.62 ± 0.34% | -1.79 ± 0.52% | -1.33 ± 0.87%
O=c1c2ccccc2[se]n1-c1ccccc1 [Ebselen] | 104 ± 4.5% | 98.4 ± 6.1% | 96.3 ± 1.7% | 96.51 ± 0.22% | 101 ± 1.1% | 98.6 ± 6.1% | 102 ± 2.2% | 92.1 ± 3.8% | 102 ± 11% | 103 ± 4.5% | 103 ± 11% | 97.4 ± 12% | 104 ± 5.3% | 99 ± 4.8% | 108 ± 10% | 103 ± 3.2% | 100 ± 1.4% | 95.7 ± 5.4% | 98.4 ± 1.8% | 86.2 ± 7.3%
C#Cc1cnc(O)nc1O [Eniluracil] | 86 ± 17% | 102 ± 2% | 88.7 ± 30% | 85.5 ± 17% | 97.4 ± 1.8% | 101.6 ± 0.32% | 93.8 ± 3.5% | 100.4 ± 0.67% | 103 ± 2.1% | 101.1 ± 0.89% | 100.8 ± 0.49% | 99.32 ± 0.24% | 103 ± 1.8% | 99.9 ± 4.8% | 95.8 ± 9.8% | 102 ± 6.5% | 102.99 ± 0.034% | 101 ± 4.8% | 96.7 ± 6.7% | 103 ± 4.7%
